How the values were obtained:
human A1 receptor = molecular target: T1, human A1 receptor (Homo sapiens, UniProt P30542); test: Adenosine antagonistic activity, radioligand binding with [3H]DPCPX; settings: [3H]DPCPX 4.5 nM
T1 sequence (P30542 1-326): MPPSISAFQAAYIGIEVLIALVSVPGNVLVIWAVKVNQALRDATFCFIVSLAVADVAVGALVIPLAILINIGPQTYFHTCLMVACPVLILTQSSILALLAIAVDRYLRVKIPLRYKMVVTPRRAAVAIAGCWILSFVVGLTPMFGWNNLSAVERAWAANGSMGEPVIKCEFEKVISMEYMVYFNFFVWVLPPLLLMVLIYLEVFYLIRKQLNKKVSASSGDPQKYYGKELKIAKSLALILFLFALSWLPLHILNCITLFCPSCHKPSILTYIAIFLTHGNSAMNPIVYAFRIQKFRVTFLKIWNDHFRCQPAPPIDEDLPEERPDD
Protocol: (§1) Test 1: Adenosine Antagonistic Activity
(§2) The adenosine antagonistic activity [Ki(nM)] of the test compound was examined by radioligand binding techniques using 8-cyclopentyl-1,3-dipropylxanthine, [dipropyl-2,3-^3H(N)] ([^3H]DPCPX, 4.5 nM) for human A1 receptor and [^3H]CGS 21680 (20 nM) for human A2a receptor.

human A2a receptor = human A2a receptor (Homo sapiens, UniProt P29274); test: Adenosine antagonistic activity, radioligand binding with [3H]CGS 21680; settings: [3H]CGS 21680 20 nM
Chain of human A2a receptor (P29274 whole entry): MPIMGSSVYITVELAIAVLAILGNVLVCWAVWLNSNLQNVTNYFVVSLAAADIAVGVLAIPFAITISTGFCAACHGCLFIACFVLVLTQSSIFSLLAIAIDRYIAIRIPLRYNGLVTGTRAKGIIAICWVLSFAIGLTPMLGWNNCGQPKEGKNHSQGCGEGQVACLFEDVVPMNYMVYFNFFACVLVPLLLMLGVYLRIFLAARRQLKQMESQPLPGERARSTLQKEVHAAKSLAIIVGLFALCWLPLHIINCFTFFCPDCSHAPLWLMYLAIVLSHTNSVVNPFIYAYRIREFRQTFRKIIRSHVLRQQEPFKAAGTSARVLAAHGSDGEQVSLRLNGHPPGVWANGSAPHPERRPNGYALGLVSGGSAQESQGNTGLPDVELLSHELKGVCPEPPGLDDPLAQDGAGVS
Protocol: as §1, §2

ddY mice = test: Anticatalepsy activity in mouse (haloperidol-induced catalepsy); assay type: in vivo; settings: 3.2 mg/kg orally, ddY mice n=7; haloperidol 0.32 mg/kg i.p. 30 min later; measured 30 min after injection
Protocol: Test 2: Anticatalepsy Activity in Mouse [I] Test Method
The test compound (3.2 mg/kg) was administered orally with ddY mice (n=7). Then, haloperidol (0.32 mg/kg) was injected intraperitoneally 30 min. after the administration of the compound. Thirty min. after the injection, the cataleptic responses of mice were measured. The forelimbs of each mouse were placed on a 3 cm high, 3 mm wide horizontal bar, and the duration of cataleptic posture was measured for up to 30 sec.

SMILES | Ki (human A1 receptor) [nM] | Ki (human A2a receptor) [nM] | Manifestation rate of catalepsy (number of mouse) (ddY mice) | melting point [°C]
O=c1ccc(-c2c(-c3ccccc3)nn3ccncc23)c[nH]1 [Example 1, 3-(2(1H)-pyridinon-5-yl)-2-phenylpyrazolo[1,5-a]pyrazine] | 0.18 | 0.68 | 1/7 | > 250
Cn1cc(-c2c(-c3ccccc3)nn3ccncc23)ccc1=O [Example 2, 3-(1-methyl-2(1H)-pyridinon-5-yl)-2-phenylpyrazolo[1,5-a]pyrazine] | 0.35 | 3.28 | 0/7 | 168 to 169
CC(C)n1cc(-c2c(-c3ccccc3)nn3ccncc23)ccc1=O [Example 3, 3-(1-Isopropyl-2(1H)-pyridinon-5-yl)-2-phenylpyrazolo[1,5-a]pyrazine] | – | – | – | 196 to 197
CCn1cc(-c2c(-c3ccccc3)nn3ccncc23)ccc1=O [Example 4, 3-(1-Ethyl-2 (1H)-pyridinon-5-yl)-2-phenylpyrazolo[1,5-a]pyrazine] | – | – | – | 192 to 193
CCCn1cc(-c2c(-c3ccccc3)nn3ccncc23)ccc1=O [Example 5, 3-(1-n-Propyl-2(1H)-pyridinon-5-yl)-2-phenylpyrazolo[1,5-a]pyrazine] | – | – | – | 165 to 166
Cn1cc(-c2c(-c3ccc(F)cc3)nn3ccncc23)ccc1=O [Example 7, 3-(1-Methyl-2(1H)-pyridinon-5-yl)-2-(4-fluorophenyl)pyrazolo[1,5-a]pyrazine] | – | – | – | 222 to 223
CC(C)n1cc(-c2c(-c3ccc(F)cc3)nn3ccncc23)ccc1=O [Example 8, 3-(1-Isopropyl-2(1H)-pyridinon-5-yl)-2-(4-fluorophenyl)pyrazolo[1,5-a]pyrazine] | – | – | – | 214 to 215
CCn1cc(-c2c(-c3ccc(F)cc3)nn3ccncc23)ccc1=O [Example 9, 3-(1-Ethyl-2(1H)-pyridinon-5-yl)-2-(4-fluorophenyl)pyrazolo[1,5-a]pyrazine] | 0.36 | 4.44 | 0/7 | 165 to 166
CCCn1cc(-c2c(-c3ccc(F)cc3)nn3ccncc23)ccc1=O [Example 10, 3-(1-n-Propyl-2(1H)-pyridinon-5-yl)-2-(4-fluorophenyl)pyrazolo[1,5-a]pyrazine] | – | – | – | 183 to 184
Cn1cc(-c2c(-c3ccccc3F)nn3ccncc23)ccc1=O [Example 12, 3-(1-Methyl-2(1H)-pyridinon-5-yl)-2-(2-fluorophenyl)pyrazolo[1,5-a]pyrazine] | – | – | – | 193 to 194
CC(C)n1cc(-c2c(-c3ccccc3F)nn3ccncc23)ccc1=O [Example 13, 3-(1-Isopropyl-2(1H)-pyridinon-5-yl)-2-(2-fluorophenyl)pyrazolo[1,5-a]pyrazine] | – | – | – | 150 to 151
CCn1cc(-c2c(-c3ccccc3F)nn3ccncc23)ccc1=O [Example 14, 3-(1-Ethyl-2(1H)-pyridinon-5-yl)-2-(2-fluorophenyl)pyrazolo[1,5-a]pyrazine] | – | – | – | 173 to 174
CCCn1cc(-c2c(-c3ccccc3F)nn3ccncc23)ccc1=O [Example 15, 3-(1-n-Propyl-2(1H)-pyridinon-5-yl)-2-(2-fluorophenyl)pyrazolo[1,5-a]pyrazine] | – | – | – | 127 to 128

Source: patent US7030121B2, “Pyrazolopyrazine compound and pharmaceutical use thereof” (Astellas Pharma Inc., priority 2001, dated 2006)
